Measurements reported in US20240041042A1, “1-(PYRIDYL)-5-AZINYLPYRAZOLE DERIVATIVES, AND THEIR USE FOR CONTROL OF UNDESIRED PLANT GROWTH” (Bayer Aktiengesellschaft, priority 2020, published 2024).
Read-outs that look alike come from different tables or passages of the source.

Columns and labels:
Assay type in all cases: in vivo
[1] = tested on: Amaranthus retroflexus (AMARE); assay: Pre-emergence herbicidal action against AMARE; settings: visual scoring after about 3 weeks vs untreated controls
In short: (§1)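 Pre-emergence soil-surface spray of compound, formulated as wettable powder or emulsion concentrate, in aqueous suspension or emulsion with 0.5% additive (600 l/ha; rate 320 g/ha or less). Activity rated visually after roughly 3 weeks in the greenhouse as a percentage of untreated controls, 0% meaning no difference.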

[2] = tested on: Echinochloa crus-galli (ECHCG); assay: Pre-emergence herbicidal action against ECHCG; settings: dosage 320 g/ha
In short: as §1

Lolium rigidum (LOLRI) [3] = assay: Pre-emergence herbicidal action against LOLRI; settings: dosage 320 g/ha
In short: as §1

[4] = tested on: Matricaria inodora (MATIN); assay: Pre-emergence herbicidal action against MATIN; settings: dosage 320 g/ha
In short: as §1

[5] = tested on: Pharbitis purpurea (PHBPU); assay: Pre-emergence herbicidal action against PHBPU; settings: dosage 320 g/ha
In short: as §1

Setaria viridis (SETVI) [6] = assay: Pre-emergence herbicidal action against SETVI; settings: dosage 320 g/ha
In short: as §1

Viola tricolor (VIOTR) [7] = assay: Pre-emergence herbicidal action against VIOTR
In short: as §1

Oryza sativa (ORYSA) [8] = settings: pre-emergence, 80 g/ha, crop plant compatibility, in comparison to untreated controls
In short: (§2)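 Scoring: visual, % of untreated control, about 3 weeks after a pre-emergence application to the soil surface. Application used WP or EC formulations diluted in water with 0.5% additive at 600 l/ha; dosage levels are marked by suffixes a, b and c.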

Zea mays (ZEAMX) [9] = settings: pre-emergence, crop plant compatibility, in comparison to untreated controls
In short: as §2

[10] = tested on: Alopecurus myosuroides (ALOMY); assay: Post-emergence herbicidal action against ALOMY; settings: visual rating about 3 weeks after treatment vs untreated controls (100% = plants have died, 0% = like control plants)
In short: (§3)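 Greenhouse plants sprayed at the one-leaf stage, 2–3 weeks after sowing, with WP or EC formulations plus 0.5% additive at 600 l/ha water. Activity rated visually after about 3 weeks versus untreated controls (100% = dead, 0% = like control), at 320 g/ha or lower.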

[11] = tested on: Amaranthus retroflexus (AMARE); assay: Post-emergence herbicidal action against AMARE
In short: as §3

Avena fatua (AVEFA) [12] = assay: Post-emergence herbicidal action against AVEFA; settings: visual rating about 3 weeks after treatment
In short: as §3

[13] = tested on: Echinochloa crus-galli (ECHCG); assay: Post-emergence herbicidal action against ECHCG
In short: as §3

[14] = tested on: Matricaria inodora (MATIN); assay: Post-emergence herbicidal action against MATIN; settings: dosage 320 g/ha
In short: as §3

[15] = tested on: Pharbitis purpurea (PHBPU); assay: Post-emergence herbicidal action against PHBPU
In short: as §3

[16] = tested on: Polygonum convolvulus (POLCO); assay: Post-emergence herbicidal action against POLCO; settings: dosage 320 g/ha
In short: as §3

Setaria viridis (SETVI) [17] = assay: Post-emergence herbicidal action against SETVI
In short: as §3

[18] = tested on: Verconica persica (VERPE); assay: Post-emergence herbicidal action against VERPE; settings: 320 g/ha, VERPE
In short: as §3

Oryza sativa (ORYSA) [19] = settings: crop plant compatibility, 80 g/ha, effect in comparison to untreated controls
In short: (§4)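 Percent effect on the crop was judged by eye against untreated controls, where 0% means like control and 100% means dead plants. Plants had been sprayed post-emergence at the one-leaf stage and then kept under optimum greenhouse conditions for about 3 weeks.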

[20] = tested on: Alopecurus myosuroides (ALOMY); assay: Pre-emergence herbicidal action against ALOMY; settings: 320 g/ha; scored visually after about 3 weeks; 100% = plants have died
In short: as §1

Avena fatua (AVEFA) [21] = assay: Pre-emergence herbicidal action against AVEFA; settings: 320 g/ha, visual scoring after about 3 weeks vs untreated controls
In short: as §1

[22] = tested on: Polygonum convolvulus (POLCO); assay: Pre-emergence herbicidal action against POLCO
In short: as §1

[23] = tested on: Verconica persica (VERPE); assay: Pre-emergence herbicidal action against VERPE; settings: dosage 320 g/ha
In short: as §1

[24] = tested on: Abutilon theophrasti (ABUTH); assay: Post-emergence herbicidal action against ABUTH; settings: visual rating about 3 weeks after treatment vs untreated controls (100% = plants have died, 0% = like control plants)
In short: as §3

Lolium rigidum (LOLRI) [25] = assay: Post-emergence herbicidal action against LOLRI; settings: dosage 320 g/ha
In short: as §3

Viola tricolor (VIOTR) [26] = assay: Post-emergence herbicidal action against VIOTR
In short: as §3

Zea mays (ZEAMX) [27] = settings: crop plant compatibility, 80 g/ha, effect vs untreated controls
In short: as §4

[28] = 80 g/ha, visual rating about 3 weeks after treatment vs untreated controls (100% = plants have died, 0% = like control plants)
[29] = 320 g/ha, visual rating about 3 weeks after treatment

For `CCOC(=O)CSc1nn(-c2ccccn2)c(-c2cncc(F)c2)c1C1CC1` [Example I-156], the “Pre-emergence action against AMARE in %” value ([1]; 320 g/ha) was 100%, the “Pre-emergence action against ECHCG in %” value [2] was 90% and the “Pre-emergence action against LOLRI in %” value (Lolium rigidum (LOLRI) [3]) was 80%. The “Pre-emergence action against MATIN in %” value [4] was 80%, the “Pre-emergence action against PHBPU in %” value [5] was 80% and the “Pre-emergence action against SETVI in %” value (Setaria viridis (SETVI) [6]) was 90%. The “Pre-emergence action against VIOTR in %” value (Viola tricolor (VIOTR) [7]; 320 g/ha, Viola tricolor) was 90%, the “Pre-emergence action against VIOTR in %” value (Viola tricolor (VIOTR) [7]; dosage 80 g/ha) was 80% and the “Pre-emergence action against ORYSA in %” value (Oryza sativa (ORYSA) [8]) was 0%. The “Pre-emergence action against ZEAMX in %” value (Zea mays (ZEAMX) [9]; 80 g/ha) was 0%, the “Pre-emergence action against ZEAMX in %” value (Zea mays (ZEAMX) [9]; 320 g/ha) was 20% and the “Post-emergence action against ALOMY in %” value ([10]; 320 g/ha) was 80%. For the same compound, the “Post-emergence action against AMARE in %” value [11, 28] was 80%, the “Post-emergence action against AMARE in %” value [11, 29] was 90% and the “Post-emergence action against AVEFA in %” value (Avena fatua (AVEFA) [12]; 320 g/ha) was 90%. The “Post-emergence action against ECHCG in %” value ([13]; dosage 80 g/ha) was 80%, the “Post-emergence action against ECHCG in %” value ([13]; dosage 320 g/ha) was 80% and the “Post-emergence action against MATIN in %” value [14] was 80%. The “Post-emergence action against PHBPU in %” value ([15]; dosage 320 g/ha) was 90%, the “Post-emergence action against POLCO in %” value [16] was 80% and the “Post-emergence action against SETVI in %” value (Setaria viridis (SETVI) [17]; dosage 320 g/ha) was 80%. The “Post-emergence action against VERPE in %” value [18] was 80% and the “Post-emergence action against ORYSA in %” value (Oryza sativa (ORYSA) [19]) was 0%.
In the case of `COC(=O)COc1nn(-c2ncccc2Cl)c(-c2ccc(F)nc2)c1Br` [Example I-28], the “Pre-emergence action against ALOMY” value [20] is reported as 100%, the “Pre-emergence action against AMARE in %” value ([1]; 80 g/ha) is reported as 90% and the “Pre-emergence action against AMARE in %” value ([1]; 320 g/ha) is reported as 100%. The “Pre-emergence action against AVEFA in %” value (Avena fatua (AVEFA) [21]) was 100%, the “Pre-emergence action against ECHCG in %” value [2] was 100% and the “Pre-emergence action against LOLRI in %” value (Lolium rigidum (LOLRI) [3]) was 100%. The “Pre-emergence action against MATIN in %” value [4] was 90%, the “Pre-emergence action against POLCO in %” value ([22]; dosage 80 g/ha) was 80% and the “Pre-emergence action against POLCO in %” value ([22]; dosage 320 g/ha) was 90%. For the same compound, the “Pre-emergence action against SETVI in %” value (Setaria viridis (SETVI) [6]) was 100%, the “Pre-emergence action against VERPE in %” value [23] was 100% and the “Pre-emergence action against VIOTR in %” value (Viola tricolor (VIOTR) [7]; 320 g/ha, Viola tricolor) was 100%. The “Pre-emergence action against VIOTR in %” value (Viola tricolor (VIOTR) [7]; dosage 80 g/ha) was 100%, the “Pre-emergence action against ORYSA in %” value (Oryza sativa (ORYSA) [8]) was 0% and the “Pre-emergence action against ZEAMX in %” value (Zea mays (ZEAMX) [9]; 80 g/ha) was 10%. The “Post-emergence action against ABUTH in %” value ([24]; 80 g/ha) was 80%, the “Post-emergence action against ABUTH in %” value ([24]; 320 g/ha) was 90% and the “Post-emergence action against ALOMY in %” value ([10]; 80 g/ha) was 100%. The “Post-emergence action against ALOMY in %” value ([10]; 320 g/ha) was 100%, the “Post-emergence action against AMARE in %” value [11, 28] was 90% and the “Post-emergence action against AMARE in %” value [11, 29] was 90%. The “Post-emergence action against AVEFA in %” value (Avena fatua (AVEFA) [12]; 80 g/ha) was 100%, the “Post-emergence action against AVEFA in %” value (Avena fatua (AVEFA) [12]; 320 g/ha) was 100% and the “Post-emergence action against ECHCG in %” value ([13]; dosage 80 g/ha) was 80%. The “Post-emergence action against ECHCG in %” value ([13]; dosage 320 g/ha) was 90%, the “Post-emergence action against LOLRI in %” value (Lolium rigidum (LOLRI) [25]) was 90% and the “Post-emergence action against MATIN in %” value [14] was 80%. The “Post-emergence action against PHBPU in %” value ([15]; dosage 80 g/ha) was 80%, the “Post-emergence action against PHBPU in %” value ([15]; dosage 320 g/ha) was 80% and the “Post-emergence action against POLCO in %” value [16] was 80%. The “Post-emergence action against SETVI in %” value (Setaria viridis (SETVI) [17]; dosage 80 g/ha) was 80%, the “Post-emergence action against SETVI in %” value (Setaria viridis (SETVI) [17]; dosage 320 g/ha) was 90% and the “Post-emergence action against VERPE in %” value [18] was 80%. The “Post-emergence action against VIOTR in %” value (Viola tricolor (VIOTR) [26]; 80 g/ha) was 80%, the “Post-emergence action against VIOTR in %” value (Viola tricolor (VIOTR) [26]; 320 g/ha) was 80% and the “Post-emergence action against ORYSA in %” value (Oryza sativa (ORYSA) [19]) was 0%. The “Post-emergence action against ZEAMX in %” value (Zea mays (ZEAMX) [27]) was 0%.
